From patent US20070197453A1, “Compositions and methods for treatment of disorders of protein aggregation” (priority 2006, published 2007)
“Also recorded” adds a separate entry of the source. Marks after values point to notes of the source that are not given here.

What was measured:
TgCRND8 mice [1] = assay: Morris Water Maze spatial reference memory test; type: in vivo, mouse
Procedure: (§1) Behavioural tests: Morris Water Maze testing was performed as previously described. After non-spatial pre-training, mice underwent place discrimination training for 5 days with 4-trials per day, followed by a cued visible platform to rule out general motivational, learning deficits and motor problems, and a probe trial to evaluate memory. […] Open field test for motor activity was preformed as described previously. Duration of walking, pausing and grooming were analyzed as indices of spontaneous locomotor activity. Sensorimotor function was examined with an Economex™ accelerating rotarod (Columbus Instruments, Columbus, Ohio), as described elsewhere. The rod was set to accelerate at a rate of 0.2 r.p.m./s, from an initial, constant speed of 5 r.p.m. Latency to fall was recorded in four daily trials, conducted at 30 min intervals. All mice were trained for seven days before testing. The test day performance score for each animal was obtained by summing its latency to fall over the four trials
Behavioural tests: Behavioural analyses were performed using the Morris Water Maze test (13, 14). After pre-spatial training, mice underwent place discrimination training for 5 days with 4 trials per day, followed by a cued visible platform to rule out general motivational, learning deficits and motor problems. […] Open field test for motor activity was performed as described previously. Duration of walking, pausing, rearing and grooming were analyzed as indices of spontaneous locomotor activity.

Aβ40 = target: T1, Aβ40 (Homo sapiens, UniProt P05067); assay: Cerebral Aβ content: brain Aβ40 (ELISA kit); type: in vivo, mouse; conditions: TgCRND8 mice with pre-existing disease; 28 day treatment from 5 months of age
T1 construct: from tissue; host or cells: hemi-brain homogenate of TgCRND8 transgenic mice
T1 sequence (P05067 672-711): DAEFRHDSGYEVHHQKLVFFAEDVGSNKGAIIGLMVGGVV
Procedure: (§2) Plasma and Cerebral Aβ Content. Hemi-brain samples were homogenized in a buffered sucrose solution, followed by either 0.4% diethylamine/100 mM NaCl for soluble Aβ levels or cold formic acid for the isolation of total Aβ. After neutralization, the samples were diluted and analyzed for Aβ40 and Aβ42 using commercially available kits (BIOSOURCE International). Each hemisphere was analyzed in triplicate and the mean values±SEM reported. Western blot analyses were performed on all fractions using urea gels for Aβ species analyses. Aβ was detected using 6E10 (BIOSOURCE International) and Enhanced Chemiluminenscence (Amersham).
(§3) Cerebral Aβ Content. Hemi-brain samples were homogenized in a buffered sucrose solution, followed by either 0.4% diethylamine/100 mM NaCl for soluble Aβ levels or cold formic acid for the isolation of total Aβ [22]. After neutralization the samples were diluted and analyzed for Aβ40 and Aβ42 using commercially available kits (BIOSOURCE International). Each hemisphere was analyzed in triplicate with the mean±SEM reported. Plasma was diluted and run directly on the ELISA.

TgCRND8 mice [2] = assay: Cerebral amyloid plaque burden (anti-Aβ immunostaining, image analysis); type: in vivo, mouse
Procedure: (§4) Cerebral amyloid burden. Brains were removed and one hemisphere was fixed in 4% paraformaldehyde and embedded in paraffin wax in the mid sagittal plane. To generate sets of systematic uniform random sections, 5 μm serial sections were collected across the entire hemisphere. Sets of sections at 50 μm intervals were used for analyses (10-14 sections/set). Plaques were identified after antigen retrieval with formic acid, and incubation with primary anti-Aβ antibody (Dako M-0872), followed by secondary antibody (Dako StreptABCcomplex/horseradish kit). End products were visualized with DAB and were counter-stained with luxol fast blue. Amyloid plaque burden was assessed with Leco IA-3001 image analysis software interfaced with Leica microscope and Hitachi KP-M1U CCD video camera. Openlab imaging software (Improvision, Lexington, Mass.) was then used to convert micrographs to binary images for plaque number and plaque area determinations. Vascular amyloid burden was defined as amyloid originating from or surrounding blood vessels and was analysed similarly.

TgCRND8 mice [3] = assay: Vascular amyloid burden; type: in vivo, mouse; conditions: compared to untreated and epi-inositol treated
Procedure: as §4

[4] = tested on: LTP in mouse hippocampal slices; assay: Long term potentiation in hippocampal slices with 7PA2 conditioned medium; type: cell-based; conditions: compound treated culture media from plain CHO cells
Procedure: Long Term Potentiation. […] Swiss Webster mice between the ages of P16 and P26 were anesthetized with isoflurane. […] The hippocampus from each hemisphere was isolated and 350 μm coronal sections were made. […] Once placed in the chamber, slices were continuously perfused by a closed loop containing 15 ml of ACSF to conserve the oligomeric Aβ. […] A bipolar stimulating electrode (World Precision Inst.) was placed in the Schaffer collaterals to deliver baseline stimuli and tetani. A borosilicate glass recording electrode (2-4 MΩ) containing ACSF was positioned approximately 75-200 μm from the stimulating electrode. […] Test stimuli were delivered at 0.05 Hz. To induce LTP, 4 tetani (100 Hz for 1 second) were delivered 5 minutes apart. Field potential responses were amplified 10× using an Axopatch 200B. The data was sampled at 10 kHz and filtered at 2 kHz. Traces were analyzed using pClamp 9.2. The slope of the field potential was estimated using approximately 10-60% of the total response.

TgTauP301L mice = assay: Synaptophysin reactivity in TgTauP301L mice; type: in vivo, mouse; conditions: TgTauP301L mice after treatment
Procedure: Synaptophysin immunohistochemical staining was performed on 3 evenly spaced saggital sections of paraformaldehyde-fixed treated and control mice. Sections were immunolabelled for synaptophysin with anti-synaptophysin IgG (1:40; Roche, Laval, PQ). Digital images were captured and analyzed as described above. Within each section, three randomly chosen 100 μm^2 areas of the CA1 region of the hippocampus were counted for synaptophysin reactive cell bodies and boutons. The results are expressed as the mean of the number of reactive bodies and boutons per 100 μm^2 [29, 30].

TgCRND8 mice [5] = assay: Gliosis quantitation (GFAP astrocytes, CD68 microglia); type: in vivo, mouse
Procedure: Gliosis Quantitation. Five randomly selected, evenly spaced, sagittal sections were collected from paraformaldehyde-fixed and frozen hemispheres of treated and control mice. Sections were immunolabelled for astrocytes with anti-rat GFAP IgG2a (Dako; diluted 1:50) and for microglia with anti-rat CD68 IgG2b (Dako; 1:50). Digital images were captured using a Coolsnap digital camera (Photometrics, Tuscon, Ariz.) mounted to a Zeiss, Axioscope 2 Plus microscope. Images were analysed using Openlab 3.08 imaging software (Improvision, Lexington Mass.).

TgCRND8 mice [6] = assay: Survival census (Kaplan-Meier); type: in vivo, mouse; conditions: compared to untreated TgCRND8 mice
Procedure: Survival Census: The probability of survival was assessed by the Kaplan-Meier technique, computing the probability of survival at every occurrence of death, thus making it suitable for small sample sizes. For the analyses of survival, 35 mice were used for each treatment group. The Tarone-Ware test was used to assess effects of treatments.
Survival Census: The probability of survival was assessed by the Kaplan-Meier technique computing the probability of survival at every occurrence of death, thus making it suitable for small sample sizes. For the analyses of survival, 30 mice were used for each treatment group. The Tarone-Ware test was used to assess effects of treatments.

TgCRND8 mice [7] = assay: Accelerating rotarod sensorimotor function; type: in vivo, mouse; conditions: treated versus untreated TgCRND8 mice
Procedure: as §1

Aβ42 [8] = target: T2, Aβ42 (Homo sapiens, UniProt P05067); assay: Plasma Aβ42 levels; type: in vivo, mouse; parameters: from tissue; host or cells: plasma of TgCRND8 transgenic mice; conditions: TgCRND8 mice following 28 days of therapy at five months of age
Procedure: as §2, §3
Target sequence in this assay (P05067 672-713): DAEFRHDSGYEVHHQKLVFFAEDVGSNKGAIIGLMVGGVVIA

Aβ42 [9] = target: T2, Aβ42; assay: Cerebral Aβ content: brain Aβ42 (ELISA kit); type: in vivo, mouse; parameters: from tissue; host or cells: hemi-brain homogenate of TgCRND8 transgenic mice; conditions: TgCRND8 mice with pre-existing disease; 28 day treatment from 5 months of age
Procedure: as §2, §3
Target sequence in this assay (P05067 672-713 limits assumed): as the sequence (P05067 672-713) above

[10] = six month old TgCRND8 mice, 28 days of oral treatment beginning at five months of age
[11] = TgCRND8 mice, 4-month Prophylactic (oral from 6 weeks to 4 months of age)
[12] = TgCRND8 mice, 6-month Prophylactic (oral from 6 weeks to 6 months of age)
[13] = TgCRND8 mice, 28 day course at 5 months of age, vs untreated
[14] = TgCRND8 mice, oral treatment for 28 days (1 month) from 5 months of age, analysed at 6 months

O[C@H]1[C@H](O)[C@@H](O)[C@H](O)[C@@H](O)[C@@H]1O [scyllo-cyclohexanehexol, 1,3,5/2,4,6-(scyllo-)cyclohexanehexol]
effects on cognition and pathology (TgCRND8 mice [1]; TgCRND8 mice, administered for 2 months, ending at 7 months of age): Sustained effects both on cognition and pathology were observed
Non-Tg littermate behaviour under treatment (TgCRND8 mice [1]; mouse, in vivo): not affected
cognition compared to non-Tg mice (TgCRND8 mice [1]; prophylactic treatment, four months of age): approached that of non-Tg mice
probe trial, % time in target quadrant (TgCRND8 mice [1]; separate cohort of TgCRND8 mice, compared to non-Tg littermates, data not shown): not statistically different from non-Tg littermates
spatial reference memory performance compared to non-Tg littermates (TgCRND8 mice [1]; [10]): indistinguishable from that of their non-Tg littermates
spatial reference memory performance compared to untreated TgCRND8 littermates (TgCRND8 mice [1]; [10]): significantly better behavioural performance compared to untreated TgCRND8 mice; also recorded: significantly better than untreated TgCRND8 littermates
effect on brain Aβ40 levels (Aβ40): reduced brain levels of Aβ40 and Aβ42
amyloid (plaque) burden, immunostaining (TgCRND8 mice [2]; TgCRND8 mice at six months of age, hippocampus and cerebral cortex): significantly decreased amyloid burden and gliosis
plaque burden (percent area of the brain covered with plaques, plaque number) (TgCRND8 mice [2]; TgCRND8 mice with pre-existing disease, one month treatment from 5 months of age): lower plaque burden
Mean Plaque Size (TgCRND8 mice [2]; [11]): 103 ± 4* μm^2
Total Plaque Area (TgCRND8 mice [2]; [11]): 63847 ± 2895 μm^2
Mean Plaque Size (TgCRND8 mice [2]; [12]): 339 ± 10† μm^2
Total Plaque Area (TgCRND8 mice [2]; [12]): 262379 ± 5373† μm^2
percent area of the brain covered by plaques reduction (TgCRND8 mice [2]; [13]): 14±0.5%
plaque number reduction (TgCRND8 mice [2]; [13]): 13±0.3%
plaque size reduction (TgCRND8 mice [2]; [13]): 16±0.4%
Mean Plaque Size (TgCRND8 mice [2]; [14]): 336 ± 6* μm^2
Total Plaque Area (TgCRND8 mice [2]; [14]): 420027 ± 14986* μm^2
total vascular Aβ load (TgCRND8 mice [3]): significantly decreased the total vascular load
direct effect on LTP [4]: no direct effect on LTP
synaptophysin reactivity (TgTauP301L mice): unchanged
percent brain area covered with microgliosis (TgCRND8 mice [5]; TgCRND8 mice): decreased the percent brain area covered with microgliosis
astrogliosis / gliosis, anti-GFAP immunostaining (TgCRND8 mice [5]; TgCRND8 mice at six months of age): significantly decreased amyloid burden and gliosis
percent brain area covered in astrogliosis (TgCRND8 mice [5]; TgCRND8 mice, 4- and 6-months of age): decreased the astrogliotic response to a greater extent at both ages
Kaplan Meier cumulative survival (TgCRND8 mice [6]): increased survival
Rotarod sensorimotor function (TgCRND8 mice [7]): no difference
Plasma Aβ42 levels (Aβ42 [8]): 990 ± 73 pg/mL
effect on brain Aβ42 levels (Aβ42 [9]): reduced brain levels of Aβ40 and Aβ42
